Source: PubChem BioAssay AID1259407 (Chemical Carcinogenesis Research Information System (CCRIS), 2018)
Active and inactive are the calls of the source. The rule behind the calls is not given here.

Test system: CCRIS mutagenicity, Ames/micronucleus/aberration tests
Experiment: CCRIS mutagenicity studies
[1] = Test System: AMES SALMONELLA TYPHIMURIUM, Strain/Indicator: TA98, Metabolic Activation: NONE, Method: STANDARD PLATE
[2] = Test System: AMES SALMONELLA TYPHIMURIUM, Strain/Indicator: TA100, Metabolic Activation: NONE, Method: STANDARD PLATE
[3] = Test System: Ames Salmonella typhimurium, Strain/Indicator: TA98, Metabolic Activation: None, Method: Preincubation
[4] = Test System: Ames Salmonella typhimurium, Strain/Indicator: TA100, Metabolic Activation: None, Method: Preincubation
[5] = Test System: Ames Salmonella typhimurium, Strain/Indicator: TA1535, Metabolic Activation: None, Method: Preincubation
[6] = Test System: AMES SALMONELLA TYPHIMURIUM, Strain/Indicator: TA100, Metabolic Activation: RAT, LIVER, S-9, AROCLOR 1254, Method: PREINCUBATION

C1=CCCCC1
mutagenic call [1]: inactive; negative | mutagenic call (Test System: AMES SALMONELLA TYPHIMURIUM, Strain/Indicator: TA98, Metabolic Activation: RAT LIVER S-9, SOVOL, Method: STANDARD PLATE): inactive; negative | mutagenic call [2]: inactive; negative | mutagenic call (Test System: AMES SALMONELLA TYPHIMURIUM, Strain/Indicator: TA100, Metabolic Activation: RAT LIVER S-9, SOVOL, Method: STANDARD PLATE): inactive; negative | mutagenic call [3]: inactive; negative | mutagenic call (Test System: Ames Salmonella typhimurium, Strain/Indicator: TA98, Metabolic Activation: Rat, Liver, S9, Sodium phenobarbital and 5,6-benzoflavone (10%), Method: Preincubation): inactive; negative | mutagenic call [4]: inactive; negative | mutagenic call (Test System: Ames Salmonella typhimurium, Strain/Indicator: TA100, Metabolic Activation: Rat, Liver, S9, Sodium phenobarbital and 5,6-benzoflavone (10%), Method: Preincubation): inactive; negative | mutagenic call [5]: inactive; negative | mutagenic call (Test System: Ames Salmonella typhimurium, Strain/Indicator: TA1535, Metabolic Activation: Rat, Liver, S9, Sodium phenobarbital and 5,6-benzoflavone (10%), Method: Preincubation): inactive; negative | mutagenic call (Test System: Ames Salmonella typhimurium, Strain/Indicator: TA1537, Metabolic Activation: None, Method: Preincubation): inactive; negative | mutagenic call (Test System: Ames Salmonella typhimurium, Strain/Indicator: TA1537, Metabolic Activation: Rat, Liver, S9, Sodium phenobarbital and 5,6-benzoflavone (10%), Method: Preincubation): inactive; negative | mutagenic call (Test System: Ames Salmonella typhimurium, Strain/Indicator: TA2637, Metabolic Activation: None, Method: Preincubation): active; positive | mutagenic call (Test System: Ames Salmonella typhimurium, Strain/Indicator: TA2637, Metabolic Activation: Rat, Liver, S9, Sodium phenobarbital and 5,6-benzoflavone (10%), Method: Preincubation): inactive; negative | mutagenic call (Test System: E. coli, Strain/Indicator: WP2uvrA/pKM101, Metabolic Activation: None, Method: Preincubation): inactive; negative | mutagenic call (Test System: E. coli, Strain/Indicator: WP2uvrA/pKM101, Metabolic Activation: Rat, Liver, S9, Sodium phenobarbital and 5,6-benzoflavone (10%), Method: Preincubation): inactive; negative

ClC1(Cl)C2(Cl)C3(Cl)C4(Cl)C(Cl)(Cl)C5(Cl)C3(Cl)C1(Cl)C5(Cl)C24Cl (centres undefined)
mutagenic call (Test System: AMES SALMONELLA TYPHIMURIUM, Strain/Indicator: TA98, Metabolic Activation: HAMSTER, LIVER, S-9, AROCLOR 1254, Method: PREINCUBATION): inactive; negative | mutagenic call (Test System: AMES SALMONELLA TYPHIMURIUM, Strain/Indicator: TA98, Metabolic Activation: NONE, Method: PREINCUBATION): inactive; negative | mutagenic call (Test System: AMES SALMONELLA TYPHIMURIUM, Strain/Indicator: TA98, Metabolic Activation: RAT, LIVER, S-9, AROCLOR 1254, Method: PREINCUBATION): inactive; negative | mutagenic call (Test System: AMES SALMONELLA TYPHIMURIUM, Strain/Indicator: TA100, Metabolic Activation: HAMSTER, LIVER, S-9, AROCLOR 1254, Method: PREINCUBATION): inactive; negative | mutagenic call (Test System: AMES SALMONELLA TYPHIMURIUM, Strain/Indicator: TA100, Metabolic Activation: NONE, Method: PREINCUBATION): inactive; negative | mutagenic call [6]: inactive; negative | mutagenic call (Test System: AMES SALMONELLA TYPHIMURIUM, Strain/Indicator: TA1535, Metabolic Activation: HAMSTER, LIVER, S-9, AROCLOR 1254, Method: PREINCUBATION): inactive; negative | mutagenic call (Test System: AMES SALMONELLA TYPHIMURIUM, Strain/Indicator: TA1535, Metabolic Activation: NONE, Method: PREINCUBATION): inactive; negative | mutagenic call (Test System: AMES SALMONELLA TYPHIMURIUM, Strain/Indicator: TA1535, Metabolic Activation: RAT, LIVER, S-9, AROCLOR 1254, Method: PREINCUBATION): inactive; negative | mutagenic call (Test System: AMES SALMONELLA TYPHIMURIUM, Strain/Indicator: TA1537, Metabolic Activation: HAMSTER, LIVER, S-9, AROCLOR 1254, Method: PREINCUBATION): inactive; negative | mutagenic call (Test System: AMES SALMONELLA TYPHIMURIUM, Strain/Indicator: TA1537, Metabolic Activation: NONE, Method: PREINCUBATION): inactive; negative | mutagenic call (Test System: AMES SALMONELLA TYPHIMURIUM, Strain/Indicator: TA1537, Metabolic Activation: RAT, LIVER, S-9, AROCLOR 1254, Method: PREINCUBATION): inactive; negative

Cc1snc2ccccc12
mutagenic call [1]: inactive; negative | mutagenic call (Test System: AMES SALMONELLA TYPHIMURIUM, Strain/Indicator: TA98, Metabolic Activation: S-9, Method: STANDARD PLATE): inactive; negative | mutagenic call [2]: inactive; negative | mutagenic call (Test System: AMES SALMONELLA TYPHIMURIUM, Strain/Indicator: TA100, Metabolic Activation: S-9, Method: STANDARD PLATE): active; positive | mutagenic call (Test System: AMES SALMONELLA TYPHIMURIUM, Strain/Indicator: TA1535, Metabolic Activation: NONE, Method: STANDARD PLATE): inactive; negative | mutagenic call (Test System: AMES SALMONELLA TYPHIMURIUM, Strain/Indicator: TA1535, Metabolic Activation: S-9, Method: STANDARD PLATE): inactive; negative | mutagenic call (Test System: AMES SALMONELLA TYPHIMURIUM, Strain/Indicator: TA1537, Metabolic Activation: NONE, Method: STANDARD PLATE): inactive; negative | mutagenic call (Test System: AMES SALMONELLA TYPHIMURIUM, Strain/Indicator: TA1537, Metabolic Activation: S-9, Method: STANDARD PLATE): inactive; negative

Cc1cc2ccccc2c2cc3c(cc12)[C@H](O)[C@@H](O)C=C3
mutagenic call [6]: active; positive

Cc1ccc2cc3c(c4c2c1CC4)C1NC1c1ccccc1-3 (centres undefined)
mutagenic call [1]: active; positive | mutagenic call [2]: active; positive

CN(C)c1ccc(C(=C2C=CC(=[N+](C)C)C=C2)c2ccccc2Cl)cc1
mutagenic call [3]: inactive; negative | mutagenic call (Test System: Ames Salmonella typhimurium, Strain/Indicator: TA98, Metabolic Activation: Rat, Liver, S-9, Aroclor 1254, Method: Preincubation): inactive; negative | mutagenic call [4]: inactive; negative | mutagenic call (Test System: Ames Salmonella typhimurium, Strain/Indicator: TA100, Metabolic Activation: Rat, Liver, S-9, Aroclor 1254, Method: Preincubation): inactive; negative | mutagenic call (Test System: Ames Salmonella typhimurium, Strain/Indicator: TA102, Metabolic Activation: None, Method: Preincubation): inactive; negative | mutagenic call (Test System: Ames Salmonella typhimurium, Strain/Indicator: TA102, Metabolic Activation: Rat, Liver, S-9, Aroclor 1254, Method: Preincubation): inactive; negative | mutagenic call [5]: inactive; negative | mutagenic call (Test System: Ames Salmonella typhimurium, Strain/Indicator: TA1535, Metabolic Activation: Rat, Liver, S-9, Aroclor 1254, Method: Preincubation): inactive; negative

Nc1nccs1
mutagenic call (Test System: AMES SALMONELLA TYPHIMURIUM, Strain/Indicator: TA98, Metabolic Activation: RAT, LIVER, S-9, AROCLOR 1254, HAMSTER, LIVER, S-9, AROCLOR 1254, Method: STANDARD PLATE): active; positive | mutagenic call (Test System: AMES SALMONELLA TYPHIMURIUM, Strain/Indicator: TA1538, Metabolic Activation: RAT, LIVER, S-9, AROCLOR 1254, HAMSTER, LIVER, S-9, AROCLOR 1254, Method: STANDARD PLATE): active; positive | mutagenic call (Test System: MOUSE LYMPHOMA, Strain/Indicator: L5178Y (TK+/TK-), Metabolic Activation: NONE, Method: SUSPENSION/PLATE): active; positive. reevaluation of results: equivocal | mutagenic call (Test System: MOUSE LYMPHOMA, Strain/Indicator: L5178Y (TK+/TK-), Metabolic Activation: RAT, LIVER, S-9, AROCLOR 1254, Method: SUSPENSION/PLATE): active; positive. reevaluation of results: equivocal

CC/C(=C(/CC)c1ccc(OP(=O)(O)O)cc1)c1ccc(OP(=O)(O)O)cc1
mutagenic call [1]: inactive; negative | mutagenic call [2]: inactive; negative | mutagenic call (Test System: E. COLI, Strain/Indicator: WP2 (HCR), Metabolic Activation: NONE, Method: STANDARD PLATE): inactive; negative
